Read-outs that look alike come from different tables or passages of the source.
Assays:
[1] = High throughput thermodynamic solubility procedure; format: physicochemical; details: for solubility in fasted state simulated gastric fluid (FaSSGF), in words: pH value of 1.6
Experimental: In a 96-well plate, 10 mM DMSO stocks (50-100 uL) of each compound were dried under heated nitrogen flow using a SPE-96 plate dryer (upper flow rate=50 L/min, temperature=60° C., lower flow rate=20 L/min, temperature=80° C.). […] Compounds prepared as the free base were assessed in conditions with and without one equivalent of TFA added. The theoretical maximum concentrations of the aqueous solutions were 10 mM. Each well was capped and incubated for a period of 18 hours at room temperature or 37° C. Mixing of the solutions during the incubation period was performed by either shaking the plate at 750 rpm or adding StirStix (stainless steel capillaries) and agitating the mixture using a rotary magnetic tumble stirrer. After the incubation period, aliquots from each well were filtered. Solubility of all samples were quantified following comparison to standards of known concentration by HPLC-UV.

[2] = tested on: PD-1; assay: PD-1 (CD279) expression on PHA/PMA-activated Jurkat T cells, flow cytometry; format: cell-based; details: Homo sapiens, percentage of inhibition of PD-1 positive cells at 10 μM, 48 hours
Experimental: To examine the effect of MNK inhibitors on PD-1 expression, Jurkat cells (Clone E6.1, ATCC, transformed T cells) were used, which express PD-1 when activated through T cell receptor (TCR) signaling. Briefly, Jurkat cells were grown in 1×RPMI with 1×Pen/Strep, and 10% FBS, then about 3×10^6 Jurkat cells were activated in presence of 1 μg/mL PHA (Sigma) and 50 ng/mL PMA (Sigma). Test Cells were treated simultaneously with various concentrations of an MNK inhibitor (0, 0.01, 0.1, 1, 3 and 10 μM). After 48 hours, culture supernatants were harvested and examined via sandwich ELISA for the presence of IL-2 using human IL-2 ELISA DuoSet (R&D Systems, Minneapolis, Minn.). The level of PD-1 on Jurkat cells was examined by incubating with human FcR block, then contacted with allophycocyanin (APC) conjugated anti-PD-1 antibody (5 μl per 100 μl volume of test, Biolegend, San Diego, CA) for 25 minutes at 4° C., without washing the cells, fixable dead cell stain (1:10,000; BD Biosciences, San Jose, CA) was added and incubated further for 10 minutes at 4° C. Cells were washed two times with flow buffer, and finally cells were fixed with fixation buffer for 15 minutes at 4° C. After fixation, cells were washed twice with flow buffer and re-suspended in flow buffer and assessed for fluorescence using BD Accuri C6 flow cytometer. Data were analyzed using the C6 cytometer software (BD Biosciences, San Jose, CA) or Attune Nxt Cytometer (Invitrogen, Carlsbad, CA).
Activation of Jurkat T cells with PHA and PMA induced the expression of PD-1 on the cell surface of about 25-30% of the stimulated Jurkat cells as compared to uninduced cells (Unstim) and induced a 1,000-fold increase in IL-2 cytokine production, respectively. […] Lastly, MNK inhibition by various different MNK inhibitors had no effect on cell viability. […] To this end, percentage of inhibition of PD-1 positive cells (10 μM) of more than 50% are labelled as “+++”, from 10% to 50% are labelled as “++”, and less than 10% are labelled as “+” (NA means “not available”).

[3] = tested on: Phosphorylated eIF4E; assay: peIF4E signaling cellular assay (CisBio peIF4E HTRF); format: cell-based; details: 2 hrs incubation at 37° C., 12-point curve 20 μM to 0.1 nM; read-out: pEI4IE signaling activity
Experimental: Phosphorylated eIF4E is assayed using the CisBio peIF4E HTRF® assay kit (CisBio, catalogue No. 64EF4PEG). Cells are plated in 96-well tissue-culture treated plate in appropriate growth medium (90 μL). Compounds (10×) are diluted using 3-fold serial dilutions in cell culture medium and added to cells. Plates are incubated for 2 hrs at 37° C. The cell supernatant is carefully removed either by aspirating supernatant or by flicking the plate. Immediately 50 μL of supplemented lysis buffer (1×) is added and incubated for at least 30 minutes at room temperature under shaking. After homogenization by pipeting up and down, 16 μL of cell lysate is transferred from the 96-well cell-culture plate to a 384-well small volume white plate. 4 μL of premixed antibody solutions (vol/vol) is prepared in the detection buffer and added. The plate is covered with a plate sealer and incubated overnight at room temperature. The fluorescence emissions at two different wavelengths are read (665 nm and 620 nm) on a Wallac Victor2. Emission ratios are converted into percent inhibitions and imported into GraphPad Prism software. […] IC50 values are determined using a nonlinear regression model available in GraphPad Prism 5.
To this end, IC50 values of less than 0.001 μM are labelled as “+++”, from 0.001 to 0.01 μM are labelled as “++”, and greater than 0.01 μM are labelled as “+” (NA means “not available”).

[4] = Fasted-State Simulated Intestinal Fluid (FaSSIF), pH 6.5, fassif, thermodynamic from solid, Fasted-State Simulated Intestinal Fluid, 18 hours incubation, theoretical maximum 10 mM, read-out: Aqueous Solubility FaSSIF (pH 6.5)
[5] = thermodynamic from solid, deionized water, 18 hours incubation, theoretical maximum 10 mM, read-out: Aqueous Solubility DI H2O

solubility at 18 h [1, 4] | IC50 [3] | solubility at 18 h [1, 5] | solubility in fasted state simulated gastric fluid (FaSSGF), in words [1] | SMILES | inhibition at 10 µM [2] | solubility in DI water at 18 h ([1]; thermodynamic from solid, deionized water, 18 hours incubation, theoretical maximum 10 mM)
18 µM | 1 to 10 nM |  |  | Cc1cc(Nc2ncnc(N)c2C)c(=O)n2c1C(=O)NC21CCN(CC2(F)CC2)CC1 [Compound 3HH] | < 10% | 
256 µM | 1 to 10 nM | 2600 µM |  | Cc1cc(Nc2ncnc(N)c2Cl)c(=O)n2c1C(=O)NC21CCCNC1 (stereo not drawn) [Compound 3C] | > 50% | 
593 µg/mL | 1 to 10 nM |  |  | Cc1cc(Nc2ncnc(N)c2Cl)c(=O)n2c1C(=O)NC21CCCN(C(C)(C)C)C1 (stereo not drawn) [Compound 3W] |  | 
 | > 10 nM |  |  | Cc1cc(Nc2ncnc(N)c2C)c(=O)n2c1C(=O)NC21CCCN(CCC(F)(F)F)C1 (stereo not drawn) [Compound 3E] |  | 
 | 1 to 10 nM |  |  | Cc1cc(Nc2ncnc(N)c2C)c(=O)n2c1C(=O)NC21CCN(CC(C)(C)F)CC1 [Compound 3GG] |  | 
 | < 1 nM |  |  | Cc1cc(Nc2ncnc(N)c2C)c(=O)n2c1C(=O)NC21CCCN2CCCC21 (stereo not drawn) [Compound 3O] |  | 
130 µM | < 1 nM | 2100 µM |  | Cc1cc(Nc2ncnc(N)c2Cl)c(=O)n2c1C(=O)NC21CCN(C)CC1(C)C (stereo not drawn) [Compound 3DD] | > 50% | 
600 µM | 1 to 10 nM | 4200 µM |  | Cc1cc(Nc2ncnc(N)c2Cl)c(=O)n2c1C(=O)NC21CNCCC1(C)C (stereo not drawn) [Compound 3S] | > 50% | 
 | > 10 nM |  |  | Cc1cc(Nc2ncnc(N)c2C)c(=O)n2c1C(=O)NC21CCCN(CC2CC2)C1 (stereo not drawn) [Compound 3H] |  | 
240 µM | 1 to 10 nM | 4300 µM | excellent solubility | Cc1cc(Nc2ncnc(N)c2C)c(=O)n2c1C(=O)NC21CCCN(C)C1 (racemic) [rac-1F, 6-((6-amino-5-methylpyrimidin-4-yl)amino)-1′,8-dimethyl-2H-spiro[imidazo[1,5-a]pyridine-3,3′-piperidine]-1,5-dione] | 10 to 50% | 
 | < 1 nM |  |  | Cc1cc(Nc2ncnc(N)c2Cl)c(=O)n2c1C(=O)NC21CCCN(CC(F)F)C1 (stereo not drawn) [Compound 3I] |  | 
68 µg/mL | < 1 nM |  |  | Cc1cc(Nc2ncnc(N)c2Cl)c(=O)n2c1C(=O)NC21CCCN(C(C)C)C1 (stereo not drawn) [Compound 3R] |  | 
151 µg/mL | > 10 nM | 1770 µg/mL | excellent solubility | Cc1cc(Nc2ncnc(N)c2C#N)c(=O)n2c1C(=O)N[C@@]21CCCN(C)C1 (single isomer, unassigned) [Compound 2Fb] | 10 to 50% | 
 | 1 to 10 nM |  |  | Cc1cc(Nc2ncnc(N)c2C)c(=O)n2c1C(=O)NC21CCCN(CC(F)F)C1 (stereo not drawn) [Compound 3G] |  | 
 | 1 to 10 nM |  |  | Cc1cc(Nc2ncnc(N)c2Cl)c(=O)n2c1C(=O)NC21CCN(C2CC2)CC1 [Compound 3Z] |  | 
88 µg/mL | 1 to 10 nM | > 1850 µg/mL | excellent solubility | Cc1cc(Nc2ncnc(N)c2C)c(=O)n2c1C(=O)N[C@@]21CCCN(C)C1 (stereo in doubt) [Compound 1Fb, (S)-6-((6-amino-5-methylpyrimidin-4-yl)amino)-1′,8-dimethyl-2H-spiro[imidazo[1,5-a]pyridine-3,3′-piperidine]-1,5-dione] | 10 to 50% | 
 | > 10 nM |  |  | Cc1cc(Nc2ncnc(N)c2C)c(=O)n2c1C(=O)NC21CCCNC1 (stereo not drawn) [Compound 3B] |  | 

solubility at 18 h [1, 4] | IC50 [3] | solubility at 18 h [1, 5] | solubility in fasted state simulated gastric fluid (FaSSGF), in words [1] | SMILES | inhibition at 10 µM [2] | solubility in DI water at 18 h ([1]; thermodynamic from solid, deionized water, 18 hours incubation, theoretical maximum 10 mM)
 | < 1 nM |  |  | Cc1cc(Nc2ncnc(N)c2Cl)c(=O)n2c1C(=O)NC21CCN(C)C(C)(C)C1 (stereo not drawn) [Compound 3FF] | 10 to 50% | 
 | 1 to 10 nM |  |  | Cc1cc(Nc2ncnc(N)c2Cl)c(=O)n2c1C(=O)NC21CCCN(CC2CC2)C1 (stereo not drawn) [Compound 3J] |  | 
40 µM | 1 to 10 nM | 770 µM |  | Cc1cc(Nc2ncnc(N)c2Cl)c(=O)n2c1C(=O)NC21CCN(CCF)CC1 [Compound 3CC] | 10 to 50% | 
107 µg/mL | > 10 nM |  |  | Cc1cc(Nc2ncnc(N)c2C)c(=O)n2c1C(=O)NC21CCCN(C(C)(C)C)C1 (stereo not drawn) [Compound 3V] |  | 
70 µM | 1 to 10 nM | 3200 µM | excellent solubility | Cc1cc(Nc2ncnc(N)c2Cl)c(=O)n2c1C(=O)N[C@@]21CCCNC1 [Compound 3L] | > 50% | 
 | 1 to 10 nM |  |  | Cc1cc(Nc2ncnc(N)c2Cl)c(=O)n2c1C(=O)NC21CC(C)N(C)C(C)C1 (stereo not drawn) [Compound 3EE] | > 50% | 
30 µM | 1 to 10 nM | 4400 µM |  | Cc1cc(Nc2ncnc(N)c2C)c(=O)n2c1C(=O)NC21CCN(CCC(F)(F)F)CC1 [Compound 3AA] | < 10% | 
 | > 10 nM |  |  | Cc1cc(Nc2ncnc(N)c2C#N)c(=O)n2c1C(=O)NC21CCCNC1 (stereo not drawn) [Compound 3U] |  | 
 | 1 to 10 nM |  |  | Cc1cc(Nc2ncnc(N)c2C)c(=O)n2c1C(=O)NC21CCCN(C(C)C)C1 (stereo not drawn) [Compound 3Q] |  | 
 | < 1 nM |  | excellent solubility | Cc1cc(Nc2ncnc(N)c2Cl)c(=O)n2c1C(=O)N[C@@]21CCCN(C)C1 [Compound 3X] |  | 
 | < 1 nM |  |  | Cc1cc(Nc2ncnc(N)c2Cl)c(=O)n2c1C(=O)NC21CCCN2CCCC21 (stereo not drawn) [Compound 3P] |  | 
 | 1 to 10 nM | 240 µM |  | Cc1cc(Nc2ncnc(N)c2Cl)c(=O)n2c1C(=O)NC21CCCN(CCC(F)(F)F)C1 (stereo not drawn) [Compound 3F] |  | 
110 µM | 1 to 10 nM | 3300 µM | excellent solubility | Cc1cc(Nc2ncnc(N)c2Cl)c(=O)n2c1C(=O)NC21CCCN(C)C1 (stereo not drawn) [Compound 3D] |  | 
 | < 1 nM |  | excellent solubility | Cc1cc(Nc2ncnc(N)c2Cl)c(=O)n2c1C(=O)N[C@]21CCCN(C)C1 [Compound 3Y] |  | 
 | < 1 nM |  |  | Cc1cc(Nc2ncnc(N)c2Cl)c(=O)n2c1C(=O)NC21CCN(CCC(F)(F)F)CC1 [Compound 3BB] | < 10% | 
 | 1 to 10 nM |  |  | CCN1CCCC2(C1)NC(=O)c1c(C)cc(Nc3ncnc(N)c3C)c(=O)n12 (stereo not drawn) [Compound 3N] |  | 

SMILES | solubility at 18 h [1, 4] | IC50 [3] | solubility at 18 h [1, 5] | solubility in fasted state simulated gastric fluid (FaSSGF), in words [1] | inhibition at 10 µM [2] | solubility in DI water at 18 h ([1]; thermodynamic from solid, deionized water, 18 hours incubation, theoretical maximum 10 mM)
Cc1cc(Nc2ncnc(N)c2Cl)c(=O)n2c1C(=O)NC21CCCCC1.Cl [Compound 4A, 6′-((6-amino-5-chloropyrimidin-4-yl)amino)-8′-methyl-2′H-spiro[cyclohexane-1,3′-imidazo[1,5-a]pyridine]-1′,5′-dione Hydrochloride, reference compound] | 45 µM |  |  |  | > 50% | 300 µM

Source: patent US11878015B2, “Piperidine-substituted Mnk inhibitors and methods related thereto” (eFFECTOR Therapeutics Inc., priority 2017, dated 2024)
